Here are results for 45 molecules from ChEMBL document CHEMBL5375992, “Design and Development of IKZF2 and CK1α Dual Degraders” (J Med Chem, 2023).

The target of series [1] is T1, Cereblon/Ikaros (Homo sapiens) (UniProt Q96SW2+Q13422). In words: Protac activity at CRBN/IKZF1 in human MOLM-13 cells at 25 uM incubated for 24 hrs by Western blotting analysis relative to control. It is filed as cell-based.
Series [2] concerns the target T2, Protein cereblon/Zinc finger protein Helios (Homo sapiens) (UniProt Q96SW2+Q9UKS7). In words: Protac activity at CRBN/IKZF2 (unknown origin) transfected in HEK293T cells at 100 nM incubated for 24 hrs by flow cytometry analysis relative to control. It is filed as cell-based.
The target in series [3] is Protein cereblon/Eukaryotic peptide chain release factor GTP-binding subunit ERF3A (Homo sapiens) (UniProt Q96SW2+P15170). In words: Protac activity at CRBN/GSPT1 (unknown origin) transfected in HEK293T cells at 100 nM incubated for 24 hrs by flow cytometry analysis relative to control. It is filed as cell-based. On the technique in general: A flow cytometer gives signals particle by particle.
Protein cereblon/Eukaryotic peptide chain release factor GTP-binding subunit ERF3A (Homo sapiens), sequence (P15170 whole entry, looked up): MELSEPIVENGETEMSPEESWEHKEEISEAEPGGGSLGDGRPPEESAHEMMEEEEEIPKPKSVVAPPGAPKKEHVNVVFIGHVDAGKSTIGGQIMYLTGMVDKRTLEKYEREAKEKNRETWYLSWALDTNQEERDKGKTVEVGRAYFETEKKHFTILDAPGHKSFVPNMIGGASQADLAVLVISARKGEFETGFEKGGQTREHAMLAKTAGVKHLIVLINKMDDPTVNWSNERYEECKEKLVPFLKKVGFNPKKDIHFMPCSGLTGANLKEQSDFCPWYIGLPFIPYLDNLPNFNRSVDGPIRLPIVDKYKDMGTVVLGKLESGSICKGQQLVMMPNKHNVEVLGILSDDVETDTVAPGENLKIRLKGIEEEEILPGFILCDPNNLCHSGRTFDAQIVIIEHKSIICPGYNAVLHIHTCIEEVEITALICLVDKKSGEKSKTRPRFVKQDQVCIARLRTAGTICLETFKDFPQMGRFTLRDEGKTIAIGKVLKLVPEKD
Protein cereblon/Eukaryotic peptide chain release factor GTP-binding subunit ERF3A (Homo sapiens), sequence (Q96SW2 whole entry, looked up): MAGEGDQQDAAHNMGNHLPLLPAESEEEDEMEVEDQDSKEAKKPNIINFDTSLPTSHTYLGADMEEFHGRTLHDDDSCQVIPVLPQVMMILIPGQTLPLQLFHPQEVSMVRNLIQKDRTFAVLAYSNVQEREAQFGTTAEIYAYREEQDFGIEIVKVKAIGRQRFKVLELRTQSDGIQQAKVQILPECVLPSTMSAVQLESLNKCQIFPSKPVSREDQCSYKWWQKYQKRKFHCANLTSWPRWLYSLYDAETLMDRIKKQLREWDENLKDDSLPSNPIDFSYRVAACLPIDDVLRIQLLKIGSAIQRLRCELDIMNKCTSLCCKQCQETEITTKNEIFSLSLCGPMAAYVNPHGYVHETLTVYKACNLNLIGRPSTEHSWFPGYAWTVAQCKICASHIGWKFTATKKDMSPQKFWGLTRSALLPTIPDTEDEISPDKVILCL

The nature of series [4]: Solubility of compound in DMSO. It is filed as physicochemical. The conditions noted are these: DMSO; read-out: solubility.
In series [5] the target is T1, Cereblon/Ikaros (Homo sapiens). In words: Protac activity at CRBN/IKZF1 (unknown origin) transfected in HEK293T cells at 100 nM incubated for 24 hrs by flow cytometry analysis relative to control. The class given is cell-based.
For series [6], the target named is Cereblon/Casein kinase I alpha (Homo sapiens) (UniProt P48729+Q96SW2). In words: Protac activity at CRBN/CK1alpha (unknown origin) transfected in HEK293T cells at 100 nM incubated for 24 hrs by flow cytometry analysis relative to control. It is filed as cell-based.
Cereblon/Casein kinase I alpha (Homo sapiens), sequence (P48729 2-337 limits assumed): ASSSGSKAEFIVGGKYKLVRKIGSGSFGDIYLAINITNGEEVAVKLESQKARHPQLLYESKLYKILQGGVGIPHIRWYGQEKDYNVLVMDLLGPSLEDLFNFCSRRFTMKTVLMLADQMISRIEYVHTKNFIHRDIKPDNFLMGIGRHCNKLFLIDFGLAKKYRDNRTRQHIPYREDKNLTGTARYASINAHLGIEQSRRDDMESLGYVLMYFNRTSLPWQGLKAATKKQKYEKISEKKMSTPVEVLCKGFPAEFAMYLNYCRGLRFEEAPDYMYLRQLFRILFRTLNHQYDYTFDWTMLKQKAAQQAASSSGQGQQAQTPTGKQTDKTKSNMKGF
Cereblon/Casein kinase I alpha (Homo sapiens), sequence (Q96SW2 whole entry partner): as the sequence (Q96SW2 whole entry, looked up) above
The target in series [7] is T2, Protein cereblon/Zinc finger protein Helios (Homo sapiens). In words: Protac activity at CRBN/IKZF2 in human MOLM-13 cells at 25 uM incubated for 24 hrs by Western blotting analysis relative to control. It is filed as cell-based.
Series [8] shares this target. In words: Protac activity at CRBN/IKZF2 in human MOLM-13 cells assessed as relative ratio at 25 uM incubated for 24 hrs by Western blotting analysis relative to DMSO. The class given is cell-based. A general note: A western blot detects proteins with antibodies after separation by electrophoresis.
Series [9] concerns the target T1, Cereblon/Ikaros (Homo sapiens). In words: Protac activity at CRBN/IKZF1 in human MOLM-13 cells assessed as relative ratio at 25 uM incubated for 24 hrs by Western blotting analysis relative to DMSO. It is filed as cell-based.
A short description of series [10]: Metabolic stability in mouse liver microsomes assessed as intrinsic clearance preincubated with NADPH and UDPGA for 5 mins followed by compound addition and measured upto 60 mins by LC-MS/MS analysis. The class given is ADME, Microsome. To be noted: read-out: CLH. On the technique in general: Microsomes from liver hold many membrane-bound enzymes, among them those of drug oxidation.

Series [11] can be described thus: Metabolic stability in mouse liver microsomes assessed as half life preincubated with NADPH and UDPGA for 5 mins followed by compound addition and measured upto 60 mins by LC-MS/MS analysis. It is filed as ADME, Microsome.

In brackets after ≈: the same amount, converted by molar mass. Activity calls are given as the source filed them. The rule behind the calls is not given here.

T2 sequence (Q96SW2 whole entry, looked up): as above
T2 sequence (Q9UKS7 whole entry, looked up): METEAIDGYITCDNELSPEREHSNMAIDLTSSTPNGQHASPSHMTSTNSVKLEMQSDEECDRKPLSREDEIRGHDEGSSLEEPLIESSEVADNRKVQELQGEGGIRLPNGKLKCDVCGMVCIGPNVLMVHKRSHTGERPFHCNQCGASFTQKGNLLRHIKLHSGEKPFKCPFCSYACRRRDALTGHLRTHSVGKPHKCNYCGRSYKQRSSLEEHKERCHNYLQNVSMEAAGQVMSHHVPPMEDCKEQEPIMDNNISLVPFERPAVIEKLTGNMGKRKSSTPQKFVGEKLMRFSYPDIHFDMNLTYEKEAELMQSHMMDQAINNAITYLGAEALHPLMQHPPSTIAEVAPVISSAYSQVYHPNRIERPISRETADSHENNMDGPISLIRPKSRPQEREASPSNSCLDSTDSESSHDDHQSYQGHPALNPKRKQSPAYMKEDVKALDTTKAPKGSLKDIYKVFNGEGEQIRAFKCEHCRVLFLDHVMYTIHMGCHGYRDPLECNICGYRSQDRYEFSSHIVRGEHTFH

As to `O=C1CCC(N2Cc3cc(NCc4ccc5ncccc5c4)ccc3C2=O)C(=O)N1` (configuration not stated), the result in series [1] was Active.
On to `O=C1CCC(N2Cc3cc(NC(=O)C4=Cc5cc(Br)cc(Br)c5OC4)ccc3C2=O)C(=O)N1` (configuration not stated), for which the Activity in series [2] is 49%; in series [3], 5%; in [5], 12%; in series [6] it was 47%. The solubility in [4] was 50 mM (≈ 28.8 mg/mL).
As for `O=C1CCC(N2Cc3cc(NCCc4ccc5ccccc5c4)ccc3C2=O)C(=O)N1` (configuration not stated), the result in [7] was inactive. Moreover, the values for the Ratio in series [8] and in [9] were 1.51 and 0.26, respectively. The result in series [1] was Active.
Turning to `O=C1CCC(N2Cc3cc(NCc4ccc5cc(F)ccc5c4)ccc3C2=O)C(=O)N1` (configuration not stated), the outcome in [7] and in [1] was Active.
Take `O=C1CCC(N2Cc3cc(NC(=O)c4ccc5ncsc5c4)ccc3C2=O)C(=O)N1` (configuration not stated): the Activity was determined as 42% in series [2], 0% in series [3], 3% in series [5] and 33% in [6].
On to `O=C1CCC(N2Cc3cc(NCc4ccc5c(c4)oc4ccccc45)ccc3C2=O)C(=O)N1` (configuration not stated), for which the outcome in series [7] and in series [1] was Active. Also, the Ratio in series [8] turned out to be 0.94; in series [9], 0.24.
Turning to `CC(=O)Nc1ccc2c(c1)CN(C1CCC(=O)NC1=O)C2=O` (configuration not stated), the Activity in series [2] turned out to be 17%; in series [3], 10%; in series [5], 4%; in [6] it was 12%.
The like results for `O=C1CCC(N2Cc3cc(NC(=O)c4ccc5c(c4)OCCO5)ccc3C2=O)C(=O)N1` (configuration not stated) were, in that order, 38%, 5%, 9% and 36%.
With `O=C1CCC(N2Cc3cc(NCc4cc5ccccc5o4)ccc3C2=O)C(=O)N1` (configuration not stated), the Ratio was found to be 0.76 in [8] and 0.13 in [9].
With `COc1cc2c(OC)cccc2cc1CNc1ccc2c(c1)CN(C1CCC(=O)NC1=O)C2=O` (configuration not stated), in series [7], the result was Active.
As for `O=C1CCC(N2Cc3cc(NC(=O)C4=Cc5ccc(OC(F)(F)F)cc5OC4)ccc3C2=O)C(=O)N1` (configuration not stated), the Activity in [2] was 85%; in series [3], 6%; in series [5], 11%; in series [6] it was 66%. Moreover, the solubility in [4] worked out at 50 mM (≈ 25.1 mg/mL).
Turning to `CN(C)c1ccc2cc(CNc3ccc4c(c3)CN(C3CCC(=O)NC3=O)C4=O)ccc2c1` (configuration not stated), the outcome in [7] and in series [1] was Active. In addition, the Ratio in series [8] was found to be 0.74; in series [9], 0.65.
In the case of `O=C1CCC(N2Cc3cc(NC(=O)C4=Cc5ccccc5OC4)ccc3C2=O)C(=O)N1` (configuration not stated), the Activity turned out to be 84% in series [2], 11% in series [3], 15% in series [5] and 66% in series [6].
On to `O=C1CCC(N2Cc3cc(NCc4ccc5oc6ccccc6c5c4)ccc3C2=O)C(=O)N1` (configuration not stated), for which the result in [7] was Active. Besides, the Ratio was 0.19 in series [8] and 0.08 in series [9].
With `O=C1CCC(N2Cc3cc(NC(=O)c4cccc(C(=O)c5ccccc5)c4)ccc3C2=O)C(=O)N1` (configuration not stated), the Activity in [2] came to 83%; in series [3] it was 9%; in series [5], 60%; in [6], 64%.
As to `COc1cc(CNc2ccc3c(c2)CN(C2CCC(=O)NC2=O)C3=O)cc2ccccc12` (configuration not stated), the result in series [7] was inactive. Further, the outcome in [1] was Active.
Regarding `COc1cc2ccc(C(=O)Nc3ccc4c(c3)CN(C3CCC(=O)NC3=O)C4=O)cc2cn1` (configuration not stated), the Activity in [2] turned out to be 88%; in series [6], 72%.
Turning to `O=C1CCC(N2Cc3cc(NCc4ccc5cc(O)ccc5c4)ccc3C2=O)C(=O)N1` (configuration not stated), the Ratio was determined as 0.84 in series [8] and 0.54 in series [9].
Regarding `O=C(/C=C/c1ccccc1)Nc1ccc2c(c1)CN(C1CCC(=O)NC1=O)C2=O` (configuration not stated), the Activity in series [2] was 71%; in series [3], 8%; in series [5], 13%; in series [6] it was 60%.
The like results for `O=C1CCC(N2Cc3cc(NC(=O)c4ccc5c(c4)OCO5)ccc3C2=O)C(=O)N1` (configuration not stated) were, in that order, 49%, 5%, 7% and 36%.
The like results for `O=C1CCC(N2Cc3cc(NC(=O)c4ccc(Oc5ccccc5)cc4)ccc3C2=O)C(=O)N1` (configuration not stated) were, in that order, 78%, 10%, 5% and 61%.
With `COc1ccc2cc(CNc3ccc4c(c3)CN(C3CCC(=O)NC3=O)C4=O)ccc2c1` (configuration not stated), the outcome in series [7] and in [1] was Active. Also, the Ratio was 0.43 in [8] and 0.64 in series [9].
With `O=C1CCC(N2Cc3cc(NCc4cccc5cnccc45)ccc3C2=O)C(=O)N1` (configuration not stated), in series [1], the outcome was Active.
Regarding `O=C1CCC(N2Cc3cc(NC(=O)C4=COc5ccccc5O4)ccc3C2=O)C(=O)N1` (configuration not stated), the Activity in series [2] came out at 81%; in series [3], 0%; in [5], 13%; in series [6], 46%.
On to `O=C1CCC(N2Cc3cc(NCc4ccc5ccncc5c4)ccc3C2=O)C(=O)N1` (configuration not stated), for which the result in series [1] was Active.
`COc1cccc2ccc(CNc3ccc4c(c3)CN(C3CCC(=O)NC3=O)C4=O)cc12` (configuration not stated): in series [7], the outcome was inactive. Moreover, the result in series [1] was Active.
For the molecule `O=C1CCC(N2C(=O)c3ccc(NCc4ccc5ccccc5c4)cc3C2=O)C(=O)N1` (configuration not stated), the result in [7] was Active. Besides, the figures for the Ratio in series [8] and in series [9] were 1.45 and 0.09, respectively. Moreover, the outcome in [1] was inactive.
On to `O=C1CCC(N2Cc3cc(NCc4cccc(Oc5ccccc5)c4)ccc3C2=O)C(=O)N1` (configuration not stated), for which the Ratio was determined as 0.79 in series [8] and 0.14 in series [9].
For the molecule `O=C1CCC(N2Cc3cc(NCc4ccc5cc(Br)ccc5c4)ccc3C2=O)C(=O)N1` (configuration not stated), the Ratio amounted to 1.41 in [8] and 0.73 in series [9].
`O=C1CCC(N2Cc3cc(NCc4ccc5c6c4CC=C4C=CC=C(C=C5)C46)ccc3C2=O)C(=O)N1` (configuration not stated): the Ratio was found to be 0.95 in [8] and 0.39 in series [9].
Take `O=C1CCC(N2Cc3cc(NC(=O)c4cccc(Oc5ccccc5)c4)ccc3C2=O)C(=O)N1` (configuration not stated): the Activity in series [2] is 74%; in series [3], 9%; in series [5] it was 62%; in series [6] it was 58%.
Turning to `O=C1CCC(N2Cc3cc(NC(=O)c4ccc5occc5c4)ccc3C2=O)C(=O)N1` (configuration not stated), the Activity in series [2] is 81%; in [3] it was 2%; in series [5], 6%; in [6], 50%.
As for `COc1ccc(CNc2ccc3c(c2)CN(C2CCC(=O)NC2=O)C3=O)cc1` (configuration not stated), the Ratio in [8] was found to be 0.65; in series [9], 0.48.
On to `O=C1CCC(N2Cc3cc(NC(=O)c4ccc5c(c4)CCCC5)ccc3C2=O)C(=O)N1` (configuration not stated), for which the Activity turned out to be 74% in [2], 1% in series [3], 16% in series [5] and 51% in series [6].
Turning to `O=C1CCC(N2Cc3cc(NCc4ccc5ccccc5c4)ccc3C2=O)C(=O)N1` (configuration not stated), the result in series [7] was Active. Also, the Ratio in series [8] turned out to be 0.36; in series [9] it was 0.15.
For the molecule `COc1ccc2ccc(CNc3ccc4c(c3)CN(C3CCC(=O)NC3=O)C4=O)cc2c1` (configuration not stated), the result in series [7] was inactive. The outcome in series [1] was Active.
Regarding `O=C1CCC(N2Cc3cc(NCc4ccccc4)ccc3C2=O)C(=O)N1` (configuration not stated), the Ratio in [8] was determined as 1.04; in [9] it was 0.59.
The like results for `O=C1CCC(N2Cc3cc(NCc4cccc(OCc5ccccc5)c4)ccc3C2=O)C(=O)N1` (configuration not stated) were, in that order, 0.66 and 0.04.
Consider `COc1cnc2cc(C(=O)Nc3ccc4c(c3)CN(C3CCC(=O)NC3=O)C4=O)ccc2c1` (configuration not stated), for which the Activity in series [2] came out at 62%; in series [6], 64%. Besides, the microsomal CLint in series [10] was less than 5.4 µL/min/mg. Further, in series [11], the half-life is more than 4.25 h.
On to `O=C1CCC(N2Cc3cc(NC(=O)Cc4cccc5ccccc45)ccc3C2=O)C(=O)N1` (configuration not stated), for which the Activity in series [2] was 93%; in series [3] it was 25%; in [5], 97%; in [6], 64%.
With `O=C1CCC(N2Cc3cc(NCc4cc5ccccc5cn4)ccc3C2=O)C(=O)N1` (configuration not stated), in series [1], the outcome was Active.
Regarding `O=C1CCC(N2Cc3cc(NC(=O)c4ccc5cc(O)ccc5c4)ccc3C2=O)C(=O)N1` (configuration not stated), the Activity in series [2] came to 60%; in [6], 55%.
Take `O=C1CCC(N2Cc3cc(NCc4cccc5c4oc4ccccc45)ccc3C2=O)C(=O)N1` (configuration not stated): the result in [7] and in [1] was Active. Besides, the Ratio in series [8] came to 0.84; in series [9] it was 0.32.
For the molecule `O=C1CCC(N2Cc3cc(NCc4cccc5ccccc45)ccc3C2=O)C(=O)N1` (configuration not stated), the Ratio came to 0.83 in series [8] and 0.66 in series [9].
For the molecule `O=C1CCC(N2Cc3cc(NCc4ccc5ccccc5n4)ccc3C2=O)C(=O)N1` (configuration not stated), the outcome in series [1] was Active.

A word on the solubility: it is how much of the substance goes into solution per volume. The term half-life denotes how long it takes for the measured level to halve.
